Measured values as given in BindingDB's records for patent US20240018157 (Schrödinger, 2024).

Target: T1, Mucosa-associated lymphoid tissue lymphoma translocation protein 1 (Homo sapiens, UniProt Q9UDY8)
T1 sequence (Q9UDY8 whole entry): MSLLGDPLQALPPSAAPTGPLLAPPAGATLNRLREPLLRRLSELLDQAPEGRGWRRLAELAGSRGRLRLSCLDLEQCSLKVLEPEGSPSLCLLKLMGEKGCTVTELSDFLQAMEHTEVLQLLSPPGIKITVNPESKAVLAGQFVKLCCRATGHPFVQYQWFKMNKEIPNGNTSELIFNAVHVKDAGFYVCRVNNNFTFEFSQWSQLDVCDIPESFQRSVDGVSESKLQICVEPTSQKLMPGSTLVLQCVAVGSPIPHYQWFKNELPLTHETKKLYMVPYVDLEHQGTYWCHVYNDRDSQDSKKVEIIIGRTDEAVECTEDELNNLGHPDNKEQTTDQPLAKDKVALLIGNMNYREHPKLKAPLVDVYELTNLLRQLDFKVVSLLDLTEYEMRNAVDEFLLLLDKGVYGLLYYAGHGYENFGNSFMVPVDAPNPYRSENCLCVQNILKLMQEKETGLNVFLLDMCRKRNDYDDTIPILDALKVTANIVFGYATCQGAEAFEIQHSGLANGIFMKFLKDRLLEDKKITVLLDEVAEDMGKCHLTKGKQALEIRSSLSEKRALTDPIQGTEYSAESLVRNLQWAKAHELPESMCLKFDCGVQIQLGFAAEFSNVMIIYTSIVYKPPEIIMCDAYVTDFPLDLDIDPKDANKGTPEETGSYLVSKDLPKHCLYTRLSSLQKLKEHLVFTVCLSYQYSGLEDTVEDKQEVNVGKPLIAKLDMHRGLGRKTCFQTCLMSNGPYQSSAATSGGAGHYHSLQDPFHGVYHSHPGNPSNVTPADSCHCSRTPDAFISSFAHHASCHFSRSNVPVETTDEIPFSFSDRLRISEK
Test: MALT1 Protease Assay 2
Experimental: Test compounds were dissolved in 100% DMSO at stock of 10 mM, with final DMSO concentration 0.1%. Test compounds were pre-incubated with MALT1 protein for 2 h at room temperature.

SMILES	IC50 [nM]
CC1(C)CN(C(=O)Nc2cnc(-n3nccn3)c(Cl)c2)c2cnc3cc(Cl)nn3c21 [US20240018157, Example 1]	10 to 100
C[C@@]1(C2CC2)CN(C(=O)Nc2cnc(-n3nccn3)c(Cl)c2)c2cnc3cc(Cl)nn3c21 [US20240018157, Example 4]	10 to 100
COc1ncc(NC(=O)N2C[C@@](C)(C(F)(F)F)c3c2cnc2cc(Cl)nn32)cc1Cl [US20240018157, Example 18]	< 10
C[C@@]1(C(F)(F)F)CN(C(=O)Nc2cnc(-n3ncc(CO)n3)c(Cl)c2)c2cnc3cc(Cl)nn3c21 [US20240018157, Example 24]	< 10
C[C@@]1(C(F)(F)F)CN(C(=O)Nc2ccnc(C(F)(F)F)c2)c2cnc3cc(Cl)nn3c21 [US20240018157, Example 27]	< 10
CN(C)Cc1cnn(-c2ncc(NC(=O)N3C[C@@](C)(C(F)(F)F)c4c3cnc3cc(Cl)nn43)cc2Cl)n1 [US20240018157, Example 29]	10 to 100
Cc1cc2ncc3c(n2n1)[C@](C)(C(F)(F)F)CN3C(=O)Nc1cnc(-n2nccn2)c(Cl)c1 [US20240018157, Example 32]	< 10
C[C@@]1(C(F)(F)F)CN(C(=O)Nc2cnc(-n3nccn3)c(C(F)F)c2)c2cnc3cc(Cl)nn3c21 [US20240018157, Example 35]	< 10
C[C@@]1(C(F)(F)F)CN(C(=O)Nc2cnc(-n3ccnn3)c(C(F)F)c2)c2cnc3cc(Cl)nn3c21 [US20240018157, Example 36]	< 10
C[C@@]1(C(F)(F)F)CN(C(=O)Nc2cnc(-n3nccn3)c(Cl)c2)c2cnc3cc(F)nn3c21 [US20240018157, Example 39]	< 10
C[C@@]1(C(F)(F)F)CN(C(=O)N[C@H]2CCCC(F)(F)C2)c2cnc3cc(Cl)nn3c21 [US20240018157, Example 53]	100 to 1000
C[C@@]1(C(F)(F)F)CN(C(=O)Nc2cnc([C@H](O)CO)c(Cl)c2)c2cnc3cc(Cl)nn3c21 [US20240018157, Example 55]	10 to 100
C[C@@]1(C(F)(F)F)CN(C(=O)Nc2cnc([C@@H](O)CO)c(Cl)c2)c2cnc3cc(Cl)nn3c21 [US20240018157, Example 56]	100 to 1000
C[C@@]1(C(F)(F)F)CN(C(=O)Nc2cnc(-n3cc(CO)cn3)c(Cl)c2)c2cnc3cc(Cl)nn3c21 [US20240018157, Example 57]	< 10
C[C@@]1(C(F)(F)F)CN(C(=O)Nc2ccnc(C(F)F)c2)c2cnc3cc(Cl)nn3c21 [US20240018157, Example 60]	< 10
COc1c(Cl)cc(NC(=O)N2C[C@@](C)(C(F)(F)F)c3c2cnc2cc(Cl)nn32)nc1O[C@H]1CCNC1 [US20240018157, Example 63]	< 10
C[C@@]1(C(F)(F)F)CN(C(=O)Nc2cnnc(C(F)F)c2)c2cnc3cc(Cl)nn3c21 [US20240018157, Example 65]	10 to 100
COc1cnc(C(F)(F)F)cc1NC(=O)N1C[C@@](C)(C(F)(F)F)c2c1cnc1cc(Cl)nn21 [US20240018157, Example 66]	< 10
C[C@@]1(C(F)(F)F)CN(C(=O)Nc2cnc(C3(O)CC3)c(Cl)c2)c2cnc3cc(Cl)nn3c21 [US20240018157, Example 67]	100 to 1000
C[C@H](O)c1cc(NC(=O)N2C[C@@](C)(C(F)(F)F)c3c2cnc2cc(Cl)nn32)cc(C(F)(F)F)n1 [US20240018157, Example 68]	10 to 100
C[C@@H](O)c1cc(NC(=O)N2C[C@@](C)(C(F)(F)F)c3c2cnc2cc(Cl)nn32)cc(C(F)(F)F)n1 [US20240018157, Example 69]	10 to 100
C[C@@]1(C(F)(F)F)CN(C(=O)Nc2cnc(-n3ncc([C@H](O)CO)n3)c(Cl)c2)c2cnc3cc(Cl)nn3c21 [US20240018157, Example 70]	< 10
C[C@@]1(C(F)(F)F)CN(C(=O)Nc2cnc(-n3ncc([C@@H](O)CO)n3)c(Cl)c2)c2cnc3cc(Cl)nn3c21 [US20240018157, Example 71]	< 10
C[C@@H](O)COc1ncc(NC(=O)N2C[C@@](C)(C(F)(F)F)c3c2cnc2cc(Cl)nn32)cc1Cl [US20240018157, Example 74]	10 to 100
